Measured values taken from patent US6991778B2, “Use of dendrimers polyl-functionalized with nitroxide groups as contrast enhancing agents in MRI imaging of joints and injectable compositions comprising them” (Nitrosci, priority 1999, dated 2006).
Like-named read-outs stand apart in the source and are kept apart here.

Tests used:
[1] = Relaxivities (k1) of nitroxides and dendrimers; format: physicochemical; set-up: unit not given here; conditions: room temperature, 1.5 T
[2] = In vitro rate of nitroxide reduction by superoxide in the presence of a thiol (EPR); format: in vitro ADME; conditions: room temperature; nitroxide 50 micromolar, cysteine 200 micromolar, superoxide flux 10 micromolar/min, pH 7.4
Text: In vitro rate of nitroxide reduction (Table 1) was undertaken using superoxide in the presence of a thiol, as an in vitro model for activated phagocytic cells. G. M. Rosen, B. E. Britigan, M. S. Cohen, S. P. Ellington and M. J. Barber, Biochim. Biophys. Acta, 969:236-241, 1988; G. M. Rosen and E. J. Rauckman. Biochem. Pharmacol. 26: 675-678, 1977; S. Pou, P. L. Davis, G. L. Wolf and G. M. Rosen, Free Rad. Res. 23: 353-364, 1995; and E. Finkelstein, G. M. Rosen and E. J. Rauckman, Biochim. Biophys. Acta, 802:90-98, 1984. For these determinations, nitroxides [S. Pou, et al, E. Finkelstein, et al., supra, and H. Kuthan, V. Ullrich and R. Estabrook, Biochem. J. 203: 551-558, 1982, (50 micromolar) were added to cysteine (200 micromolar) in the presence of a continued flux of superoxide (10 micromolar/min), generated by the action of xanthine oxidase on xanthine (400 micromolar) in Chelexed sodium phosphate buffer (50 mM, pH 7.4) The rate of superoxide production was estimated by following the superoxide dismutase (30 U/mL) inhibitable reduction of ferricytochrome c at […] using a molar absorbance of 21 mM^−1 cm^−1. H. Kuthan et al. supra. Rates of nitroxide reduction were monitored by EPR spectroscopy at ambient temperature by observing the change of the low-field (the broadened EPR spectrum of each dendrimer-linked nitroxide prevented the use of other peaks to measure rates of reduction) as a function of time.

[3] = MRI of shoulder joints after intra-articular injection; format: in vivo, human; conditions: 1 mL of 100 μM solution into both shoulder joints, 1.5 Tesla
Procedure: Into both shoulder joints of a person (45-55 kg), with post-trauma chronic soreness in one of the shoulder joint is injected 1 mL of a stock 100 μM sterile solution in 0.9% normal saline of a dendrimer of Formula (I) containing 32 terminal PROXYL-3-carbamido nitroxide groups using a (gauge 25) needle. Then position the patent in a MR imager (1.5 Tesla MR system, SIGNA; General Electric Medical Systems, Milwaukee, Wis.) and obtain a scan of both joints in the conventional manner.

[4] = MRI of rabbit knee joint after intra-articular injection; format: in vivo; conditions: 1 mL of stock solution into rabbit knee joint
Procedure: Rabbits (2.8-3.5 kg) to be used for MRI experiments are sedated with intramuscular Ketamine and Xylazine. Anesthesia is maintained with i. v. sodium pentobarbital as required. Under fluoroscopic guidance, a needle (gauge 25) is placed into the knee joint of a thus-anesthetized rabbit and 1 mL of a stock solution of a nitroxyl functionalized dendrimer of Formula (I) containing 32 nitroxyl functionalizing groups. The rabbit's injected joint is then positioned in a MR imager.

[5] = rabbit joints; Bacic, et al. 1997; cited from earlier work
[6] = rabbit; cited from earlier work
[7] = cited from earlier work
[8] = in vivo, iv; cited from earlier work

Row | Compound | Relaxivity (k1) [1] | Reduction Rate [2] | further results
1 | DAB-dendrimer-(NH-3-CO-PROXYL)4 [[5]] | 0.82 | 7.93 µM/min | 
2 | DAB-dendrimer-(NH-3-CO-PROXYL)16 [[8]] | 3.19 | 0.00 µM/min | 
3 | CC1(C)CC(C(=O)O)C(C)(C)N1[O] (stereo not drawn) [[1], 3-carboxy-2,2,5,5-tetramethyl-1-pyrrolidinyloxyl, reference compound] | 0.19 | 0.52 µM/min | 
4 | DAB-dendrimer-(NH-3-CO-PROXYL)32 [[9]] | 5.73 | 0.00 µM/min | status of the articular cartilage in the MR image [3]: readily identifiable; articular cartilage in the MR image [4]: readily identifiable
5 | CC1(C)CC(C[N+](C)(C)C)C(C)(C)N1[O].[I-] (stereo not drawn) [3-trimethylaminomethyl-2,2,5,5-tetramethyl-1-pyrrolidinyloxyl iodide] |  |  | affinity toward proteoglycans [5]: high affinity; in vivo stability [6]: remarkable
6 | DAB-dendrimer-(NH-3-CH2-PROXYL)4 [[15]] | 0.82 |  | 
7 | O=C([O-])CN(CCN(CC(=O)[O-])CC(=O)O)CCN(CC(=O)[O-])CC(=O)O.[Gd+3] [Gd(DTPA), gadolinium (Gd)-DTPA] | 4.94 |  | relaxivity ([7]; as reported by Keana, et al.): 4.95 mM⁻¹ s⁻¹; relaxivity ([7]; room temperature, 1.5 T): ca. 5; equilibration throughout the cartilage [8]: ca. 5 hr
8 | DAB-dendrimer-(NH-3-CO-PROXYL)8 [[7]] | 1.69 | 0.00 µM/min | 
9 | TREN-dendrimer-(NH-3-CO-PROXYL)3 [[6]] | 0.57 | 7.54 µM/min | 
